# Source: patent US12054509B2, “Antimicrobial compounds, compositions, and uses thereof” (Lakewood Amedex, Inc., priority 2017, dated 2024)
# Tests used:
# Format in all cases: cell-based
# [1] = test system: Haemophilus influenzae; test: MIC at pH 3.5 (CLSI, Mueller-Hinton broth); conditions: 5 isolates
# [2] = test system: bacterial strains; test: MIC at pH 3.5 in human and mouse urine
# From the text: Bacterial strains evaluated in this study include Escherichia coli, Klebsiella spp, Serratia marcescens, Proteus mirabilis/vulgaris, Citrobacter spp, Providencia spp, Morganella morganii, Pseudomonas aeruginosa, Staphylococcus aureus (MRSA only), and Enterococcus faecalis. […]
# [3] = test system: Pseudomonas aeruginosa; test: MIC against a single isolate (Example 26); conditions: single isolate, read-out: P. aeruginosa MIC
# Description: (§1) Bacterial strains evaluated in this study include Escherichia coli, Klebsiella spp, Serratia marcescens, Proteus mirabilis/vulgaris, Citrobacter spp, Providencia spp, Morganella morganii, Pseudomonas aeruginosa, Staphylococcus aureus (MRSA only), and Enterococcus faecalis. Nu-8 test solutions are adjusted to pH 3.5 with citric acid, and MIC is evaluated per the CLSI methods in Mueller-Hinton broth supplemented accordingly to facilitate growth of specific strains.
# (§2) MIC was determined as per Example 9 using LAI-101, LAI-102, Nu-10, LAI-105, LAI-106, Nu-3, and Nu-8 against a single isolate of Escherichia coli. Pseudomonas aeruginosa, Staphylococcus aureus (MRSA only), and Candida Albicans. For all microbe species, the LAI-101, LAI-102, Nu-10, LAI-105, and LAI-106 all perform at least as well as, and in many experiments better than, Nu-8 and Nu-3, which are both already quite active compounds.
# [4] = test system: Escherichia coli; test: MIC against a single isolate (Example 26); conditions: single isolate, read-out: E. coli MIC
# Description: as §1, §2
# [5] = test system: Candida Albicans; test: MIC against a single isolate (Example 26); conditions: single isolate, read-out: C. albicans MIC
# Description: as §1, §2
# [6] = test system: E. coli (ATCC 25922); test: Time kill assay in saline at pH 3.5 (Example 27); conditions: for Log10 CFU/mL: pH 3.5
# Description: Log10 5 CFU of E. coli (ATCC 25922) were suspended in saline. Additionally, a sample of the saline only was prepared as a vehicle control (V.C.). Solutions of Nu-3, Nu-8, and Nu-10 at varying concentrations were adjusted to pH 3.5 with citric acid and added to the E. coli suspensions. At each time point (0, 1, 2.5, 5, 10, and 20 minutes), the treated bacterial suspensions were plated and incubated for 24 hrs, and each plate was read to determine the CFU count.
# Tables 12-14 provide the time kill assay data for Nu-3 (Table 12), Nu-8 (Table 13) and Nu-10 (Table 14) against E. coli.
smiles,measurement,setting,value
"CCCCOP(=O)(O)OC[C@H]1O[C@@H](n2ccc(N)nc2=O)C[C@@H]1OP(=O)(O)OCCCC [Nu-8, sodium ((2R,3S,5R)-5-(4-amino-2-oxopyrimidin-1(2H)-yl)-3-((butoxyoxidophosphor-yl)oxy)tetrahydrofuran-2-yl)methyl butyl phosphate]",MIC,[1],4.69 to 9.38 mg/mL
same,MICs in human and mouse urine,[2],comparable to those of Nu-8 in Mueller Hinton broth
same,MIC,[3],> 50 mg/mL
same,MIC,[4],> 50 mg/mL
same,MIC,[5],> 50 mg/mL
same,Log10 CFU/mL,"[6]; 2.5% solution, 0 min",5.20 Log10 CFU/mL
same,Log10 CFU/mL,"[6]; 2.5% solution, 1 min",4.93 Log10 CFU/mL
same,Log10 CFU/mL,"[6]; 2.5% solution, 2.5 min",4.90 Log10 CFU/mL
same,Log10 CFU/mL,"[6]; 2.5% solution, 5 min",4.93 Log10 CFU/mL
same,Log10 CFU/mL,"[6]; 2.5% solution, 10 min",4.90 Log10 CFU/mL
same,Log10 CFU/mL,"[6]; 2.5% solution, 20 min",4.93 Log10 CFU/mL
same,Log10 CFU/mL,"[6]; 5% solution, 0 min",5.20 Log10 CFU/mL
same,Log10 CFU/mL,"[6]; 5% solution, 1 min",4.88 Log10 CFU/mL
same,Log10 CFU/mL,"[6]; 5% solution, 2.5 min",4.92 Log10 CFU/mL
same,Log10 CFU/mL,"[6]; 5% solution, 5 min",4.90 Log10 CFU/mL
same,Log10 CFU/mL,"[6]; 5% solution, 10 min",4.95 Log10 CFU/mL
same,Log10 CFU/mL,"[6]; 5% solution, 20 min",4.90 Log10 CFU/mL
same,Log10 CFU/mL,"[6]; 10% solution, 0 min",5.20 Log10 CFU/mL
same,Log10 CFU/mL,"[6]; 10% solution, 1 min",4.86 Log10 CFU/mL
same,Log10 CFU/mL,"[6]; 10% solution, 2.5 min",4.79 Log10 CFU/mL
same,Log10 CFU/mL,"[6]; 10% solution, 5 min",4.76 Log10 CFU/mL
same,Log10 CFU/mL,"[6]; 10% solution, 10 min",4.71 Log10 CFU/mL
same,Log10 CFU/mL,"[6]; 10% solution, 20 min",4.75 Log10 CFU/mL
same,kill of the bacteria,"[6]; concentration of 10%, at 20 mins",modest kill
